Positions of bridges follow the written chain, without caps; N, C: chain ends. Residues, ends and D or L forms follow the SMILES beside them.
Tests used:
GC-C [1] = target: T1, GC-C (Homo sapiens, UniProt P25092); assay type: binding
GC-C [2] = target: T1, GC-C; assay type: cell-based; details: for Ratio EC50 pH 8/EC50 pH 5: cGMP response in T84 cells; for pH sensitivity with regard to binding and/or activation of GC-C: pH 5 versus pH 8
female CD-1 mice = assay type: in vivo; details: oral gavage, % distance travelled by charcoal front in small intestine
[3] = system: ligated duodenal loops in rats; assay type: in vivo, rat; details: 2.5 μg of peptide per loop

T1 sequence (P25092 24-1073 limits assumed): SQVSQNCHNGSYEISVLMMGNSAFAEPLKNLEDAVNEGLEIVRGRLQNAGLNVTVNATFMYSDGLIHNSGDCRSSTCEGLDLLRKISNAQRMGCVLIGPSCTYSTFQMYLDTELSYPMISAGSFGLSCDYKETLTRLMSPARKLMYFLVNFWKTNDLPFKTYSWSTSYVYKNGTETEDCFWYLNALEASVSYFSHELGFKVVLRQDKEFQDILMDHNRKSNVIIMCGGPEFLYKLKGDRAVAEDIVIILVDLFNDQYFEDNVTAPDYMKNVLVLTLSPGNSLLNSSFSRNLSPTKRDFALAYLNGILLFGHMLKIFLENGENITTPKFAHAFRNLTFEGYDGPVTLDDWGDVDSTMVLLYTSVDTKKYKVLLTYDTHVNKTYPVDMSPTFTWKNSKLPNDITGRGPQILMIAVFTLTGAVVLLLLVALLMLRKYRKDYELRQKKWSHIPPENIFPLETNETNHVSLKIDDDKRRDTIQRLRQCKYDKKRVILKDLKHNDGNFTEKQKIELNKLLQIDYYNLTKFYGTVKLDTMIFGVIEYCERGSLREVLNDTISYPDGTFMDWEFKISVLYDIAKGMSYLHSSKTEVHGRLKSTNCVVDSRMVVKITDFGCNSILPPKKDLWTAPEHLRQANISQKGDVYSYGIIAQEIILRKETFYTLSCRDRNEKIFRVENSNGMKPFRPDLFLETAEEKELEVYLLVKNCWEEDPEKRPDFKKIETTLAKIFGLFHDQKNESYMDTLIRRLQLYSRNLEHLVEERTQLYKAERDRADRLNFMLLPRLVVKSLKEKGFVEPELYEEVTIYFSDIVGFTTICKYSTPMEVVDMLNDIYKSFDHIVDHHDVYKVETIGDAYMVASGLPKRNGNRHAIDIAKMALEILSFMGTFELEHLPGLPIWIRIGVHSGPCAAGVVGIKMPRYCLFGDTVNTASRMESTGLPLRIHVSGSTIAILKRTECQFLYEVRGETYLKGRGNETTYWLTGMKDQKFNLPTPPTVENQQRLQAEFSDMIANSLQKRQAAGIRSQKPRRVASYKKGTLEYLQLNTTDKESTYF

SMILES	Ratio Ki pH 8/Ki pH 5 (GC-C [1])	Ratio EC50 pH 8/EC50 pH 5 (GC-C [2])	ED50 in the gastrointestinal transit assay (female CD-1 mice) [µg/kg]	Rate of fluid accumulation [3] [µL/min/cm]	Rate of HCO3- accumulation [3] [neq/min/cm]	pH sensitivity with regard to binding and/or activation of GC-C (GC-C [2])
C[C@H](N)C(=O)N[C@@H](CC(=O)O)C(=O)N[C@@H](CC(=O)O)C(=O)N[C@H]1CSSC[C@@H]2NC(=O)[C@@H]3CSSC[C@@H](C(=O)N[C@@H](Cc4ccc(O)cc4)C(=O)O)NC(=O)CNC(=O)[C@H]([C@@H](C)O)NC(=O)[C@H](CSSC[C@H](NC1=O)C(=O)N[C@@H](CCC(=O)O)C(=O)N[C@@H](Cc1ccc(O)cc1)C(=O)N3)NC(=O)[C@H](C)NC(=O)[C@@H]1CCCN1C(=O)[C@H](CC(N)=O)NC2=O [Peptide 9, ADDCCEYCCNPACTGCY]	1.29	79.8				
C[C@@H]1NC(=O)[C@@H]2CCCN2C(=O)[C@H](CC(N)=O)NC(=O)[C@@H]2CSSC[C@H](NC(=O)[C@H](CC(=O)O)NC(=O)[C@H](CC(=O)O)NC(=O)CN)C(=O)N[C@H]3CSSC[C@H](NC1=O)C(=O)N[C@@H]([C@@H](C)O)C(=O)NCC(=O)N[C@H](C(=O)N[C@@H](Cc1ccc(O)cc1)C(=O)O)CSSC[C@H](NC(=O)[C@H](Cc1ccc(O)cc1)NC(=O)[C@H](CCC(=O)O)NC3=O)C(=O)N2 [Peptide 7, GDDCCEYCCNPACTGCY] (H-GDDCCEYCCNPACTGCY-OH; disulfide 4-9, 5-13, 8-16 (inferred); N-terminus and C-terminus assumed)		383				
CC(C)C[C@@H]1NC(=O)[C@H](CCC(=O)O)NC(=O)[C@@H]2CSSC[C@@H]3NC(=O)[C@H](C)NC(=O)[C@@H]4CCCN4C(=O)[C@H](CC(N)=O)NC(=O)[C@H](CSSC[C@H](NC(=O)[C@H](CC(=O)O)NC(=O)[C@H](CC(=O)O)NC(=O)[C@@H](N)CC(=O)O)C(=O)N2)NC(=O)[C@H](CSSC[C@@H](C(=O)O)NC(=O)CNC(=O)[C@H]([C@@H](C)O)NC3=O)NC1=O [Peptide 20, DDDCCELCCNPACTGC] (H-DDDCCELCCNPACTGC-OH; disulfide 4-9, 5-13, 8-16 (inferred); N-terminus and C-terminus assumed)	3.6	90				
C[C@@H]1NC(=O)[C@@H]2CCCN2C(=O)[C@H](CC(N)=O)NC(=O)[C@@H]2CSSC[C@H](NC(=O)[C@H](CC(=O)O)NC(=O)[C@H](CC(=O)O)NC(=O)[C@@H](N)CC(N)=O)C(=O)N[C@H]3CSSC[C@H](NC1=O)C(=O)N[C@@H]([C@@H](C)O)C(=O)NCC(=O)N[C@H](C(=O)N[C@@H](Cc1ccc(O)cc1)C(=O)O)CSSC[C@H](NC(=O)[C@H](Cc1ccc(O)cc1)NC(=O)[C@H](CCC(=O)O)NC3=O)C(=O)N2 [Peptide 3, NDDCCEYCCNPACTGCY] (H-NDDCCEYCCNPACTGCY-OH; disulfide 4-9, 5-13, 8-16 (inferred); N-terminus and C-terminus assumed)	17.5	25.3				
CC(C)C[C@@H]1NC(=O)[C@H](CCC(=O)O)NC(=O)[C@@H]2CSSC[C@@H]3NC(=O)[C@H](C)NC(=O)[C@@H]4CCCN4C(=O)[C@H](CC(N)=O)NC(=O)[C@H](CSSC[C@H](NC(=O)[C@H](CC(=O)O)NC(=O)[C@H](CC(=O)O)NC(=O)[C@H](C)N)C(=O)N2)NC(=O)[C@H](CSSC[C@@H](C(=O)N[C@@H](Cc2ccc(O)cc2)C(=O)O)NC(=O)CNC(=O)[C@H]([C@@H](C)O)NC3=O)NC1=O [Peptide 13, ADDCCELCCNPACTGCY]		62.5				
CC(C)C[C@@H]1NC(=O)[C@H](CCC(=O)O)NC(=O)[C@@H]2CSSC[C@@H]3NC(=O)[C@H](C)NC(=O)[C@@H]4CCCN4C(=O)[C@H](CC(N)=O)NC(=O)[C@H](CSSC[C@H](NC(=O)[C@H](CC(=O)O)NC(=O)[C@H](CC(=O)O)NC(=O)[C@@H](N)CC(N)=O)C(=O)N2)NC(=O)[C@H](CSSC[C@@H](C(=O)N[C@@H](Cc2ccc(O)cc2)C(=O)O)NC(=O)CNC(=O)[C@H]([C@@H](C)O)NC3=O)NC1=O [Peptide 11, NDDCCELCCNPACTGCY]	6.43	2.7				
CC(C)C[C@@H]1NC(=O)[C@H](CCC(=O)O)NC(=O)[C@@H]2CSSC[C@@H]3NC(=O)[C@H](C)NC(=O)[C@@H]4CCCN4C(=O)[C@H](CC(N)=O)NC(=O)[C@H](CSSC[C@H](NC(=O)[C@H](CC(=O)O)NC(=O)[C@H](CC(=O)O)NC(=O)[C@@H]4CCCN4)C(=O)N2)NC(=O)[C@H](CSSC[C@@H](C(=O)N[C@@H](Cc2ccc(O)cc2)C(=O)O)NC(=O)CNC(=O)[C@H]([C@@H](C)O)NC3=O)NC1=O [Peptide 18, PDDCCELCCNPACTGCY] (H-PDDCCELCCNPACTGCY-OH; disulfide 4-9, 5-13, 8-16 (inferred); N-terminus and C-terminus assumed)		205.2				
C[C@@H]1NC(=O)[C@@H]2CCCN2C(=O)[C@H](CC(N)=O)NC(=O)[C@@H]2CSSC[C@H](NC(=O)[C@H](CC(=O)O)NC(=O)[C@H](CC(=O)O)NC(=O)[C@@H](N)CC(=O)O)C(=O)N[C@H]3CSSC[C@H](NC1=O)C(=O)N[C@@H]([C@@H](C)O)C(=O)NCC(=O)N[C@H](C(=O)N[C@@H](Cc1ccc(O)cc1)C(=O)O)CSSC[C@H](NC(=O)[C@H](Cc1ccc(O)cc1)NC(=O)[C@H](CCC(=O)O)NC3=O)C(=O)N2 [Peptide 5, DDDCCEYCCNPACTGCY]	5.52	256	7.54			
CC(C)C[C@@H]1NC(=O)[C@H](CCC(=O)O)NC(=O)[C@@H]2CSSC[C@@H]3NC(=O)[C@H](C)NC(=O)[C@@H]4CCCN4C(=O)[C@H](CC(N)=O)NC(=O)[C@H](CSSC[C@H](NC(=O)[C@H](CC(=O)O)NC(=O)[C@@H](N)CC(=O)O)C(=O)N2)NC(=O)[C@H](CSSC[C@@H](C(=O)N[C@@H](Cc2ccc(O)cc2)C(=O)O)NC(=O)CNC(=O)[C@H]([C@@H](C)O)NC3=O)NC1=O [Peptide 16, DDCCELCCNPACTGCY] (H-DDCCELCCNPACTGCY-OH; disulfide 3-8, 4-12, 7-15 (inferred); N-terminus and C-terminus assumed)		26.9				
CC(C)C[C@@H]1NC(=O)[C@H](CCC(=O)O)NC(=O)[C@@H]2CSSC[C@@H]3NC(=O)[C@H](C)NC(=O)[C@@H]4CCCN4C(=O)[C@H](CC(N)=O)NC(=O)[C@H](CSSC[C@H](NC(=O)[C@H](CC(=O)O)NC(=O)[C@H](CC(=O)O)NC(=O)[C@@H](N)CC(=O)O)C(=O)N2)NC(=O)[C@H](CSSC[C@@H](C(=O)N[C@@H](Cc2ccc(O)cc2)C(=O)O)NC(=O)CNC(=O)[C@H]([C@@H](C)O)NC3=O)NC1=O [Peptide 17, DDDCCELCCNPACTGCY]	6.35	386.2	2.9	1.8		
CC(C)C[C@@H]1NC(=O)[C@H](CCC(=O)O)NC(=O)[C@@H]2CSSC[C@@H]3NC(=O)[C@H](C)NC(=O)[C@@H]4CCCN4C(=O)[C@H](CC(N)=O)NC(=O)[C@H](CSSC[C@H](NC(=O)[C@H](CC(=O)O)NC(=O)[C@H](CC(=O)O)NC(=O)CN)C(=O)N2)NC(=O)[C@H](CSSC[C@@H](C(=O)N[C@@H](Cc2ccc(O)cc2)C(=O)O)NC(=O)CNC(=O)[C@H]([C@@H](C)O)NC3=O)NC1=O [Peptide 19, GDDCCELCCNPACTGCY] (H-GDDCCELCCNPACTGCY-OH; disulfide 4-9, 5-13, 8-16 (inferred); N-terminus and C-terminus assumed)		61.5				
C[C@@H]1NC(=O)[C@@H]2CCCN2C(=O)[C@H](CC(N)=O)NC(=O)[C@@H]2CSSC[C@H](NC(=O)[C@H](CC(=O)O)NC(=O)[C@@H](N)CC(=O)O)C(=O)N[C@H]3CSSC[C@H](NC1=O)C(=O)N[C@@H]([C@@H](C)O)C(=O)NCC(=O)N[C@H](C(=O)N[C@@H](Cc1ccc(O)cc1)C(=O)O)CSSC[C@H](NC(=O)[C@H](Cc1ccc(O)cc1)NC(=O)[C@H](CCC(=O)O)NC3=O)C(=O)N2 [Peptide 4, DDCCEYCCNPACTGCY] (H-DDCCEYCCNPACTGCY-OH; disulfide 3-8, 4-12, 7-15 (inferred); N-terminus and C-terminus assumed)	5.27	48.0	6.3	2.0	80	
C[C@@H]1NC(=O)[C@@H]2CCCN2C(=O)[C@H](CC(N)=O)NC(=O)[C@@H]2CSSC[C@H](N)C(=O)N[C@H]3CSSC[C@H](NC1=O)C(=O)N[C@@H]([C@@H](C)O)C(=O)NCC(=O)N[C@H](C(=O)N[C@@H](Cc1ccc(O)cc1)C(=O)O)CSSC[C@H](NC(=O)[C@H](Cc1ccccc1)NC(=O)[C@H](CCC(=O)O)NC3=O)C(=O)N2 [Peptide 2, CCEFCCNPACTGCY] (H-CCEFCCNPACTGCY-OH; disulfide 1-6, 2-10, 5-13)	0.97	13.2	2.06	2.0	80	little or no pH sensitivity
C[C@@H]1NC(=O)[C@@H]2CCCN2C(=O)[C@H](CC(N)=O)NC(=O)[C@@H]2CSSC[C@H](NC(=O)[C@H](CC(=O)O)NC(=O)[C@H](CC(=O)O)NC(=O)[C@@H]3CCCN3)C(=O)N[C@H]3CSSC[C@H](NC1=O)C(=O)N[C@@H]([C@@H](C)O)C(=O)NCC(=O)N[C@H](C(=O)N[C@@H](Cc1ccc(O)cc1)C(=O)O)CSSC[C@H](NC(=O)[C@H](Cc1ccc(O)cc1)NC(=O)[C@H](CCC(=O)O)NC3=O)C(=O)N2 [Peptide 8, PDDCCEYCCNPACTGCY] (H-PDDCCEYCCNPACTGCY-OH; disulfide 4-9, 5-13, 8-16)		58.2				
CC(C)C[C@@H]1NC(=O)[C@H](CCC(=O)O)NC(=O)[C@@H]2CSSC[C@@H]3NC(=O)[C@H](C)NC(=O)[C@@H]4CCCN4C(=O)[C@H](CC(N)=O)NC(=O)[C@H](CSSC[C@H](N)C(=O)N2)NC(=O)[C@H](CSSC[C@@H](C(=O)N[C@@H](Cc2ccc(O)cc2)C(=O)O)NC(=O)CNC(=O)[C@H]([C@@H](C)O)NC3=O)NC1=O [Peptide 1, CCELCCNPACTGCY] (H-CCELCCNPACTGCY-OH; disulfide 1-6, 2-10, 5-13 (inferred); N-terminus and C-terminus assumed)	0.69	8.5	0.43	2.0	80	little or no pH sensitivity

— patent publication US8735360B2 (priority 2009, dated 2014)
